Measured values taken from patent US20240252454A1, “COMPOSITION COMPRISING AN INHIBITOR OF MITOCHONDRIAL TRANSCRIPTION” (LEAD DISCOVERY CENTER GMBH, priority 2021, published 2024).

Assays:
Type in all cases: cell-based
[1] = tested on: NCIH460; experiment: SRB assay, IMT combined with inhibitor; conditions: NCIH460 (lung); concentration series of the labelled inhibitor + fixed concentration of IMT (3S)-1-[(2R)-2-[4-(2-chloro-4-fluoro-phenyl)-2-oxo-chromen-7-yl]oxypropanoyl]piperidine-3-carboxylic acid (Table 3: 40 nM, 120 h); negative=synergistic, positive=antagonistic
Method in brief: (§1)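 Cellular biomass changes were measured by sulforhodamine B staining in medium with 5 mM glucose, at least two independent replicates. Dilution series of MAPK pathway standard-of-care inhibitors were combined with a fixed 40 nM (3S)-1-[(2R)-2-[4-(2-chloro-4-fluoro-phenyl)-2-oxo-chromen-7-yl]oxypropanoyl]piperidine-3-carboxylic acid; growth followed over 120 h versus untreated cells.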

[2] = tested on: CALU6; experiment: SRB assay, IMT combined with inhibitor; conditions: CALU6 (lung); concentration series of the labelled inhibitor + fixed concentration of IMT (3S)-1-[(2R)-2-[4-(2-chloro-4-fluoro-phenyl)-2-oxo-chromen-7-yl]oxypropanoyl]piperidine-3-carboxylic acid (Table 3: 40 nM, 120 h); negative=synergistic, positive=antagonistic
Method in brief: as §1

[3] = tested on: MDAMB468; experiment: SRB assay, IMT combined with inhibitor; conditions: MDAMB468 (breast); concentration series of the labelled inhibitor + fixed concentration of IMT (3S)-1-[(2R)-2-[4-(2-chloro-4-fluoro-phenyl)-2-oxo-chromen-7-yl]oxypropanoyl]piperidine-3-carboxylic acid; negative=synergistic, positive=antagonistic
Procedure: (§2) Solforhodamine B assay is carried out as described in Voigt W. (2005) Sulforhodamine B Assay and Chemosensitivity. (Methods in Molecular Medicine™, vol 110. Humana Press. https://doi.org/10.1385/1-59259-869-2:039).
(§3) The determination of changes in cellular biomass was based on the Solforhodamine B assay format, carried out as described in Voigt W. (2005) Sulforhodamine B Assay and Chemosensitivity. (Methods in Molecular Medicine™, vol 110. Humana Press. https://doi.org/10.1385/1-59259-869-2:039).
(§4) All in vitro cell culture experiments were carried out under near physiological glucose concentrations (5 mM) in at least two independent replicates.
(§5) To establish the method described, combinations of (3S)-1-[(2R)-2-[4-(2-chloro-4-fluoro-phenyl)-2-oxo-chromen-7-yl]oxypropanoyl]piperidine-3-carboxylic acid and various PARPi were tested with regard to their effect on the cell growth of 33 tumour cell lines from different tissues, in the SRB and CTG assay format. The assay methods and protocols in cell culture and measurement followed the procedure as described in Example 1). […] This initial study was followed by validation experiments in a matrix format and in the CTG assay, as described for Example 1) (Table 6.)

[4] = tested on: ASPC1; experiment: SRB assay, IMT combined with inhibitor; conditions: ASPC1 (pancreas); concentration series of the labelled inhibitor + fixed concentration of IMT (3S)-1-[(2R)-2-[4-(2-chloro-4-fluoro-phenyl)-2-oxo-chromen-7-yl]oxypropanoyl]piperidine-3-carboxylic acid; negative=synergistic, positive=antagonistic
Procedure: as §2, §3, §4, §5

[5] = tested on: A204; experiment: SRB assay, IMT combined with inhibitor; conditions: A204 (muscle); concentration series of the labelled inhibitor + fixed concentration of IMT (3S)-1-[(2R)-2-[4-(2-chloro-4-fluoro-phenyl)-2-oxo-chromen-7-yl]oxypropanoyl]piperidine-3-carboxylic acid; negative=synergistic, positive=antagonistic
Procedure: as §2, §3, §4, §5

[6] = tested on: MCF7; experiment: SRB assay, IMT combined with inhibitor; conditions: MCF7 (breast); concentration series of the labelled inhibitor + fixed concentration of IMT (3S)-1-[(2R)-2-[4-(2-chloro-4-fluoro-phenyl)-2-oxo-chromen-7-yl]oxypropanoyl]piperidine-3-carboxylic acid; negative=synergistic, positive=antagonistic
Procedure: as §2, §3, §4, §5

[7] = tested on: 33 tumour cell lines from different tissues; experiment: SRB assay, panel of tumour cell lines; conditions: fixed concentration of IMT (3S)-1-[(2R)-2-[4-(2-chloro-4-fluoro-phenyl)-2-oxo-chromen-7-yl]oxypropanoyl]piperidine-3-carboxylic acid against concentration series of the labelled inhibitor
Procedure: as §2, §3, §4
as §5, with “6.) […]” for “6.)”

[8] = tested on: MDAMB231; experiment: SRB assay, IMT combined with inhibitor; conditions: MDAMB231 (breast); concentration series of the labelled inhibitor + fixed concentration of IMT (3S)-1-[(2R)-2-[4-(2-chloro-4-fluoro-phenyl)-2-oxo-chromen-7-yl]oxypropanoyl]piperidine-3-carboxylic acid; negative=synergistic, positive=antagonistic
Procedure: as §2, §3, §4, §5

SMILES | difference between the calculated combinatorial index (BLISS) and the observed combinatorial effect [1] | difference between the calculated combinatorial index (BLISS) and the observed combinatorial effect [2] | difference between the calculated combinatorial index (BLISS) and the observed combinatorial effect [3] | difference between the calculated combinatorial index (BLISS) and the observed combinatorial effect [4] | difference between the calculated combinatorial index (BLISS) and the observed combinatorial effect [5] | difference between the calculated combinatorial index (BLISS) and the observed combinatorial effect [6] | combinatorial effect in the majority of the cell lines and tissue types examined [7] | difference between the calculated combinatorial index (BLISS) and the observed combinatorial effect [8]
Cc1cc(C(=O)NOCCO)c(Nc2ccc(I)cc2F)n(C)c1=O [AZD8330, 2-((2-Fluoro-4-iodophenyl)amino)-N-(2-hydroxyethoxy)-1,5-dimethyl-6-oxo-1,6-dihydropyridine-3-carboxamide] | 0.0015 | −0.0116 |  |  |  |  |  | 
COc1c(OCCCN2CCOCC2)ccc2c1N=C(NC(=O)c1cnc(N)nc1)N1CCN=C21 [BAY 80-6946, 2-Amino-N-{7-methoxy-8-[3-(4-morpholinyl)propoxy]-2,3-dihydroimidazo[1,2-c]quinazolin-5-yl}-5-pyrimidinecarboxamide] | −0.0473 | 0.0374 | 0.0183 | 0.0488 | −0.0098 | 0.0155 | clear synergistic effect | 
O=C(c1ccc(F)c(F)c1Nc1ccc(I)cc1F)N1CC(O)([C@@H]2CCCCN2)C1 [Cobimetinib] | −0.0338 | 0.0286 |  |  |  |  |  | 
CC(C)(C)c1nc(-c2cccc(NS(=O)(=O)c3c(F)cccc3F)c2F)c(-c2ccnc(N)n2)s1 [Dabrafenib] | −0.0275 | −0.0342 |  |  |  |  |  | 
C[C@H](Nc1ncnc2nc[nH]c12)c1cc2cccc(Cl)c2c(=O)n1-c1ccccc1 [Duvelisib] | −0.0651 | 0.0342 | −0.0285 | 0.0753 | −0.0217 | 0.0256 |  | 
CS(=O)(=O)N1CCN(Cc2cc3nc(-c4cccc5[nH]ncc45)nc(N4CCOCC4)c3s2)CC1 [GDC-0941, 2-(1H-Indazol-4-yl)-6-[[4-(methylsulfonyl)-1-piperazinyl]methyl]-4-(4-morpholinyl)thieno[3,2-d]pyrimidine] | −0.0178 | −0.0406 | −0.0509 | 0.1003 | 0.3066 | 0.0454 |  | 
O=C(c1cc(Cc2n[nH]c(=O)c3ccccc23)ccc1F)N1CCN(C(=O)C2CC2)CC1 [Olaparib] | −0.0377 | 0.0400 | −0.0262 | −0.0583 | −0.0329 | 0.0602 | clear synergistic effect | −0.0488
O=C(NOC[C@H](O)CO)c1ccc(F)c(F)c1Nc1ccc(I)cc1F [PD 0325901, (R)—N-(2,3-dihydroxypropoxy)-3,4-difluoro-2-((2-fluoro-4-iodophenyl)amino)benzamide] | 0.0200 | 0.0809 |  |  |  |  |  | 
Cn1cnc2c(F)c(Nc3ccc(Br)cc3Cl)c(C(=O)NOCCO)cc21 [Selumetinib] | −0.0276 | 0.0376 |  |  |  |  |  | 
CC(=O)Nc1cccc(-n2c(=O)n(C3CC3)c(=O)c3c(Nc4ccc(I)cc4F)n(C)c(=O)c(C)c32)c1 [Trametinib] | 0.0180 | −0.0308 |  |  |  |  |  | 
CC(C)Nc1cc(-c2c[nH]c(C(=O)N[C@H](CO)c3cccc(Cl)c3)c2)c(Cl)cn1 [Ulixertinib] | 0.0088 | 0.0100 |  |  |  |  |  | 
